Bounds are passed on as bounds.

The first series is described as follows: log P (HPLC/MS data of the preparation examples). The conditions noted are these: HCOOH.
For the compound “2-(6-{[({(3-bromo-4-methoxyphenyl)[3-chloro-5-(trifluoromethyl)pyridin-2-yl]methylene}amino)oxy]methyl}pyridin-2-yl)-1H-isoindole-1,3(2H)-dione [Example 430]”, the “log P(HCOOH)” value is listed as 4.78.

On to “2-[({[(1-methyl-1H-imidazol-5-yl)(phenyl)methylene]amino}oxy)methyl]pyrimidin-4-amine [Example 105]”, for which the “log P(HCOOH)” value is reported as less than 0.23.

With “2-methyl-N-{4-[({[(1-methyl-1H-imidazol-5-yl)(phenyl)methylene]amino}-oxy)methyl]-1,3-thiazol-2-yl}propanamide [Example 143]”, the “log P(HCOOH)” value came out at 1.63.

For “2-{6-[({[(1-methyl-1H-imidazol-5-yl)(3-thienyl)methylene]amino}oxy)-methyl]pyridin-2-yl}-1H-isoindole-1,3(2H)-dione [Example 491]”, the “log P(HCOOH)” value was determined as 1.73.

In the case of “6-[({[(1-methyl-1H-imidazol-5-yl)(phenyl)methylene]amino}oxy)methyl]pyridin-2-amine [Example 108]”, the “log P(HCOOH)” value is on record as 0.29.

As for “6-{[({(3-bromo-4-methoxyphenyl)[3-chloro-5-(trifluoromethyl)pyridin-2-yl]methylene}amino)oxy]methyl}pyridin-2-amine [Example 432]”, the “log P(HCOOH)” value came out at 2.54.

The same series, now with this note: HCOOH (formic acid).
`Cc1ncc(C(=NO)c2ccccc2)n1C` [1-(1,2-dimethyl-1H-imidazol-5-yl)-N-hydroxy-1-phenylmethanimine] yielded a chromatographic logP of 0.43.

For the compound `ON=C(c1ccsc1)c1snc(Cl)c1Cl` [1-(3,4-dichloro-1,2-thiazol-5-yl)-N-hydroxy-1-(3-thienyl)methanimine], the chromatographic logP was 3.04.

The compound `Cc1cnc(C)c(C(=NO)c2ccccc2)n1` [1-(3,6-dimethylpyrazin-2-yl)-N-hydroxy-1-phenylmethanimine] returned a chromatographic logP of 1.7.

As to `CON(C)C(=O)c1snc(Cl)c1Cl` [3,4-dichloro-N-methoxy-N-methyl-1,2-thiazole-5-carboxamide], the chromatographic logP amounted to 1.66.

Compound `Cc1ncc(C(=O)c2ccccc2)n1C` [(1,2-dimethyl-1H-imidazol-5-yl)(phenyl)methanone] came in with a chromatographic logP of 0.56.

As for `Cn1ccnc1C(=O)c1ccccc1` [(1-methyl-1H-imidazol-2-yl)(phenyl)methanone], the chromatographic logP came to 1.38.

In the case of `Cn1cncc1C(=O)c1cccs1` [(1-methyl-1H-imidazol-5-yl)(2-thienyl)methanone], the chromatographic logP was determined as 0.52.

In turn, `Cn1cncc1C(=O)c1ccsc1` [(1-methyl-1H-imidazol-5-yl)(3-thienyl)methanone] gave a chromatographic logP of 0.43.

`Cn1cncc1C(=O)c1ccccc1` [(1-methyl-1H-imidazol-5-yl)(phenyl)methanone] registered a chromatographic logP of 0.79.

For the compound `O=C(c1ccsc1)c1snc(Cl)c1Cl` [(3,4-dichloro-1,2-thiazol-5-yl)(3-thienyl)methanone], the chromatographic logP was found to be 3.31.

Compound `Cc1cnc(C)c(C(C#N)c2ccccc2)n1` (stereo not drawn) [(3,6-dimethylpyrazin-2-yl)(phenyl)acetonitrile] registered a chromatographic logP of 2.28.

The compound `Cc1cnc(C)c(C(=O)c2ccccc2)n1` [(3,6-dimethylpyrazin-2-yl)(phenyl)methanone] had a chromatographic logP of 2.18.

Compound `Cc1nocc1C(=O)c1cccs1` [(3-methyl-1,2-oxazol-4-yl)(2-thienyl)methanone] showed a chromatographic logP of 2.2.

In turn, `Cc1nocc1C(=NOC(=O)c1ccccn1)c1cccs1` [({[(3-methyl-1,2-oxazol-4-yl)(2-thienyl)methylene]amino}oxy)(pyridin-2-yl)methanone] yielded a chromatographic logP of 2.25.

The series is the same for the next values; noted with them: HPLC (LC-MS) method [b]: pH 2.7, 0.1% formic acid in water and acetonitrile, linear gradient 10% to 95% acetonitrile; EEC directive 79/831 Annex V.A8.
“2-(6-{[({(3-bromo-4-methoxyphenyl)[3-chloro-5-(trifluoromethyl)pyridin-2-yl]methylene}amino)oxy]methyl}pyridin-2-yl)-1H-isoindole-1,3(2H)-dione [Example 430]”: the log p is 1.67^[b].

Consider “2-{6-[({[(1-methyl-1H-imidazol-5-yl)(3-thienyl)methylene]amino}oxy)-methyl]pyridin-2-yl}-1H-isoindole-1,3(2H)-dione [Example 491]”, for which the log p is 3.67^[b].

In the case of “6-{[({(3-bromo-4-methoxyphenyl)[3-chloro-5-(trifluoromethyl)pyridin-2-yl]methylene}amino)oxy]methyl}pyridin-2-amine [Example 432]”, the log p is 1.99^[b].

On to `Cn1cncc1C(=NOCc1cccc(N)n1)c1ccsc1` (single isomer, unassigned) [Example 418], for which the log p is 0.39^[b].

In the case of `Cn1cncc1C(=NOCc1cccc(N)n1)c1ccsc1` (single isomer, unassigned) [Example 419], the log p was 0.32^[b].

As to `CCCCCC(=O)Nc1cccc(CON=C(c2ccsc2)c2cncn2C)n1` (single isomer, unassigned) [Example 426], the log p was 1.99^[b].

Turning to `CCCCCC(=O)Nc1cccc(CON=C(c2ccsc2)c2cncn2C)n1` (single isomer, unassigned) [Example 427], the log p was 1.99^[b].

Regarding `CCCCCOC(=O)Nc1nc(CON=C(c2cccs2)c2cncn2C)cs1` (single isomer, unassigned) [Example 459], the log p is 2.16^[b].

In the case of `CCCCCOC(=O)Nc1nc(CON=C(c2cccs2)c2cncn2C)cs1` (single isomer, unassigned) [Example 460], the log p was 2.25^[b].

For the compound `CCCCCOC(=O)Nc1nc(CON=C(c2ccsc2)c2cncn2C)cs1` (single isomer, unassigned) [Example 461], the log p is 2.22^[b].

Take `CCCCCOC(=O)Nc1nc(CON=C(c2ccsc2)c2cncn2C)cs1` (single isomer, unassigned) [Example 462]: the log p was 2.23^[b].

Staying with this series, now noted: HPLC on reversed phase columns, method [a]: pH 2.3 with 0.1% phosphoric acid and acetonitrile as eluent.
Take `Cc1nnsc1C(=NOCc1ccccn1)c1ccccc1` [Example 1]: the log p is 2.36^[a].

The same series, now with this note: HPLC/MS with HCOOH (formic acid).
`COc1ccc(C(=NO)c2ncc(C(F)(F)F)cc2Cl)cc1Br` [1-(3-bromo-4-methoxyphenyl)-1-[3-chloro-5-(trifluoromethyl)pyridin-2-yl]-N-hydroxymethanimine] returned a chromatographic logP of 3.37.

Still in this series, the particulars now being: LC-MS, method [b]: pH 2.7 with 0.1% formic acid in water and acetonitrile, linear gradient 10% to 95% acetonitrile.
For “2-[({[(1-methyl-1H-imidazol-2-yl)(phenyl)methylene]amino}oxy)methyl]pyrimidin-4-amine [Example 7]”, the log p is 1.26^[b].

As for “2-[({[(1-methyl-1H-imidazol-5-yl)(phenyl)methylene]amino}oxy)methyl]pyrimidin-4-amine [Example 105]”, the log p is 5.05^[b].

As for “6-[({[(1-methyl-1H-imidazol-5-yl)(phenyl)methylene]amino}oxy)methyl]pyridin-2-amine [Example 108]”, the log p is 4.75^[b].

For `Cn1cncc1C(=NOCc1cccc(N)n1)c1ccccc1` (single isomer, unassigned) [Example 97], the log p was 0.25^[b].

Consider `Cn1cncc1C(=NOCc1cccc(N)n1)c1ccccc1` (single isomer, unassigned) [Example 98], for which the log p is 0.29^[b].

As to `Cn1cncc1C(=NOCc1cccc(NC(=O)C(C)(C)C)n1)c1ccccc1` (single isomer, unassigned) [Example 123], the log p was 2.1^[b].

As to `Cn1cncc1C(=NOCc1cccc(NC(=O)C(C)(C)C)n1)c1ccccc1` (single isomer, unassigned) [Example 126], the log p was 1.85^[b].

Regarding `CCCCCOC(=O)Nc1cccc(CON=C(c2ccccc2)c2ocnc2C)n1` (single isomer, unassigned) [Example 318], the log p is 4.34^[b].

For the compound `CCCCCOC(=O)Nc1cccc(CON=C(c2ccccc2)c2ocnc2C)n1` (single isomer, unassigned) [Example 319], the log p was 4.54^[b].

For `CCCCCOC(=O)Nc1nc(CON=C(c2ccccc2)c2ocnc2C)cs1` (single isomer, unassigned) [Example 322], the log p was 3.87^[b].

In the case of `CCCCCC(=O)Nc1cccc(CON=C(c2ccccc2)c2ocnc2C)n1` (single isomer, unassigned) [Example 323], the log p was 3.67^[b].

On to `Cc1ncoc1C(=NOCc1csc(N)n1)c1ccccc1` (single isomer, unassigned) [Example 350], for which the log p was 1.3^[b].

`Cn1ccnc1C(=NOCc1cccc(N2C(=O)c3ccccc3C2=O)n1)c1ccccc1` [Example 2]: the log p was 1.8^[b].

Still in this series, the particulars now being: LC-MS, method [c]: pH 7.8 with 0.001 molar ammonium hydrogen carbonate solution in water, linear gradient 10% to 95% acetonitrile.
For `Cn1ccnc1C(=NOCc1nccc(N)n1)c1ccccc1` [Example 3], the log p is 1.42^[c].

Still in this series, the particulars now being: Neutral.
With “2-[({[(1-methyl-1H-imidazol-2-yl)(phenyl)methylene]amino}oxy)methyl]pyrimidin-4-amine [Example 7]”, the “log P(Neutral)” value is 1.42.

Still in this series, the particulars now being: method [b]: LC-MS at pH 2.7, 0.1% formic acid in water / acetonitrile, linear gradient 10% to 95% acetonitrile.
For the compound “2-methyl-N-{4-[({[(1-methyl-1H-imidazol-5-yl)(phenyl)methylene]amino}-oxy)methyl]-1,3-thiazol-2-yl}propanamide [Example 143]”, the log p is 1.11^[b].

As for `Cc1nc(C(=NOCc2cccc(N3C(=O)c4ccccc4C3=O)n2)c2ccccc2)cs1` (single isomer, unassigned) [Example 168], the log p was 3.27^[b].

`Cc1nc(C(=NOCc2cccc(N)n2)c2ccccc2)cs1` (single isomer, unassigned) [Example 169]: the log p was 1.7^[b].

Take `Cc1nc(C(=NOCc2cccc(N3C(=O)c4ccccc4C3=O)n2)c2ccccc2)cs1` (single isomer, unassigned) [Example 170]: the log p was 3.55^[b].

On to `Cc1nc(C(=NOCc2cccc(NC(=O)CC(C)C)n2)c2ccccc2)cs1` (single isomer, unassigned) [Example 171], for which the log p is 3.46^[b].

Turning to `Cc1nc(C(=NOCc2cccc(NC(=O)Cc3ccccc3)n2)c2ccccc2)cs1` (single isomer, unassigned) [Example 173], the log p was 3.61^[b].

As to `Cc1nc(C(=NOCc2cccc(N)n2)c2ccccc2)cs1` (single isomer, unassigned) [Example 174], the log p is 1.47^[b].

In the case of `CCCCCC(=O)Nc1cccc(CON=C(c2ccccc2)c2csc(C)n2)n1` (single isomer, unassigned) [Example 188], the log p is 3.89^[b].

Regarding `CCCCCC(=O)Nc1cccc(CON=C(c2ccccc2)c2csc(C)n2)n1` (single isomer, unassigned) [Example 189], the log p is 4.26^[b].

As to `Cc1nc(C(=NOCc2cccc(NC(=O)CC(C)C)n2)c2ccccc2)cs1` (single isomer, unassigned) [Example 190], the log p was 3.75^[b].

On to `Cc1nc(C(=NOCc2cccc(NC(=O)Cc3ccccc3)n2)c2ccccc2)cs1` (single isomer, unassigned) [Example 191], for which the log p was 3.87^[b].

The same series, now with this note: reversed phase HPLC column, pH 2.7.
As to `Cn1ncnc1C(=NOCc1cccc(N)n1)c1ccccc1` [Example 4, 6-[({[(1-methyl-1H-1,2,4-triazol-5-yl)(phenyl)methylene]amino}oxy)methyl]pyridin-2-amine], the chromatographic logP came out at 1.

For the origin of these results see patent US8981111B2 (priority 2008, dated 2015).
